From ChEMBL document CHEMBL5214956, “Structure-based design and modular synthesis of novel PI4K class II inhibitors bearing a 4-aminoquinazoline scaffold” (Bioorg Med Chem Lett, 2022)

How the values were obtained:
[1] = molecular target: Phosphatidylinositol 4-kinase alpha (Homo sapiens, UniProt P42356); experiment: Inhibition of PI4KA catalytic domain (unknown origin) assessed as enzyme residual activity incubated for 60 mins using ATP as substrate by ATP-Glo luminescent assay
[2] = molecular target: Phosphatidylinositol 4-kinase beta (Homo sapiens, UniProt Q9UBF8); experiment: Inhibition of PI4KB catalytic domain (unknown origin) assessed as enzyme residual activity incubated for 60 mins using ATP as substrate by ATP-Glo luminescent assay
[3] = molecular target: Phosphatidylinositol 4-kinase type 2-alpha (Homo sapiens, UniProt Q9BTU6); experiment: Inhibition of PI4K2A catalytic domain (unknown origin) assessed as enzyme residual activity incubated for 60 mins using ATP as substrate by ATP-Glo luminescent assay
Sequence of Phosphatidylinositol 4-kinase type 2-alpha (Q9BTU6 whole entry, the tested form may be a part): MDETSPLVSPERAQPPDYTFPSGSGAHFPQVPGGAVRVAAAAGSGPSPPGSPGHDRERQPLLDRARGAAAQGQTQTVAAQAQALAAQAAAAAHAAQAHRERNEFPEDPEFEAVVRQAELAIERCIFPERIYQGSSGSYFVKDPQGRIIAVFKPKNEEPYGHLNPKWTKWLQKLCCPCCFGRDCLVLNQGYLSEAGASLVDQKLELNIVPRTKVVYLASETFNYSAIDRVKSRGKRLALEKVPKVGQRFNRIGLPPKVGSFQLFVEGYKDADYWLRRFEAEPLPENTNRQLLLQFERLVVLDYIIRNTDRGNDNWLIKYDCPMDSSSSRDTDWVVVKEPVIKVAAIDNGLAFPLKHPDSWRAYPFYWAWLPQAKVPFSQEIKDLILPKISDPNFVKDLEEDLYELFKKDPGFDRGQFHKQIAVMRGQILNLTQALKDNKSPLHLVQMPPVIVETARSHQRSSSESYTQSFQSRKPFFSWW

Sequence of Phosphatidylinositol 4-kinase alpha (P42356 whole entry, the tested form may be a part): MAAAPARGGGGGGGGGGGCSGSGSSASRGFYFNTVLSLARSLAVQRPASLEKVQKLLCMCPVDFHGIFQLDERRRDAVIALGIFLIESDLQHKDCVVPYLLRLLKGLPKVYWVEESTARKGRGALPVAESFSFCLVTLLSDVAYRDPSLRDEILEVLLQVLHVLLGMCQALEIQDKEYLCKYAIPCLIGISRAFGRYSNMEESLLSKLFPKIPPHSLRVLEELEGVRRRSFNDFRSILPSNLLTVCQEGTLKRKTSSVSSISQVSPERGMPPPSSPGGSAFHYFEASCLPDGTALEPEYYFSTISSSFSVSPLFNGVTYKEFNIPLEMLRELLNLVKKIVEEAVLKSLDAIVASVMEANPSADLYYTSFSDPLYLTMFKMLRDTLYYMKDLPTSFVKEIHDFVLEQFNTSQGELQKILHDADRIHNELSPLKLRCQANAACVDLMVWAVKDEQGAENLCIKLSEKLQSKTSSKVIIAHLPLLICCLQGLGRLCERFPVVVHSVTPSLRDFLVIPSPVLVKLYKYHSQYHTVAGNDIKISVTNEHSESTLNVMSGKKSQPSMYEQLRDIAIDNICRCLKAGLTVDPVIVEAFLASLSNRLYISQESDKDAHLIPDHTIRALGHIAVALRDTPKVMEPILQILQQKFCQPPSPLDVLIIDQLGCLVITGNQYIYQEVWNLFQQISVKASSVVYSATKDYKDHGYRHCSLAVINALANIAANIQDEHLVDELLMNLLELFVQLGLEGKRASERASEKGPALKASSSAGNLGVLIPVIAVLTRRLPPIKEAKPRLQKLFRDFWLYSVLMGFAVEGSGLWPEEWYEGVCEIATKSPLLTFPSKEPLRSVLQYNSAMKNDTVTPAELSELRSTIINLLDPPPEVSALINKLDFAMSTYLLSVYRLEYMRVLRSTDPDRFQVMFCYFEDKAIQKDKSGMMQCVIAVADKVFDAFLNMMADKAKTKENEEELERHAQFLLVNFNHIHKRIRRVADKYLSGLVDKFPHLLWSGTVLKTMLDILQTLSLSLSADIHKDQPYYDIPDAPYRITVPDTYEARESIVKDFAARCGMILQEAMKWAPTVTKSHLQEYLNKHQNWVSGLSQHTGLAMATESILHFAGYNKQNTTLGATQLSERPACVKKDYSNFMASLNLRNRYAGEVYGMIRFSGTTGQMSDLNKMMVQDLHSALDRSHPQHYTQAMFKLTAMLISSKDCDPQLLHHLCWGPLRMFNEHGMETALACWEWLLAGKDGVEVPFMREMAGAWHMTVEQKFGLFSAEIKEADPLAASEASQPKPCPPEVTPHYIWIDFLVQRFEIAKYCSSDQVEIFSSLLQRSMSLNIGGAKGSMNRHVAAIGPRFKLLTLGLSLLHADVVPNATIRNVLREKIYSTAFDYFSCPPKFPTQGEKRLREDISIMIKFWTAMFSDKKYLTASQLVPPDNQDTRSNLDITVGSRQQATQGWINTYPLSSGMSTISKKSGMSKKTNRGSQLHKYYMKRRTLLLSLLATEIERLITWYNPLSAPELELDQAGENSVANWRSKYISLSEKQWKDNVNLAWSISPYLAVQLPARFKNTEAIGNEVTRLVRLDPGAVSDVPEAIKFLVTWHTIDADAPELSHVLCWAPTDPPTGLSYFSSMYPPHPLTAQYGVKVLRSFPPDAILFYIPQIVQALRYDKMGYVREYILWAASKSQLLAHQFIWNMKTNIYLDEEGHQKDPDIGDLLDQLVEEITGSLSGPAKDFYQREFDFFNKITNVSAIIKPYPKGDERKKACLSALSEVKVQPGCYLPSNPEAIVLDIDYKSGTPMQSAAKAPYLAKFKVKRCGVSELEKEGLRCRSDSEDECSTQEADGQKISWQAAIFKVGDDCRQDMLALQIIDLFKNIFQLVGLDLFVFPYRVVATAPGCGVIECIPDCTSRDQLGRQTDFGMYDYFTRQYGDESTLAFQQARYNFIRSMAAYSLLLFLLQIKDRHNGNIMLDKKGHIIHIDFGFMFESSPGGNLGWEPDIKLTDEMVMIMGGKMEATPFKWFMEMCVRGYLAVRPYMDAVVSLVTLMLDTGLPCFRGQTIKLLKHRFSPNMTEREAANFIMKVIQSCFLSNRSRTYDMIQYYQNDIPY
Sequence of Phosphatidylinositol 4-kinase beta (Q9UBF8 whole entry, the tested form may be a part): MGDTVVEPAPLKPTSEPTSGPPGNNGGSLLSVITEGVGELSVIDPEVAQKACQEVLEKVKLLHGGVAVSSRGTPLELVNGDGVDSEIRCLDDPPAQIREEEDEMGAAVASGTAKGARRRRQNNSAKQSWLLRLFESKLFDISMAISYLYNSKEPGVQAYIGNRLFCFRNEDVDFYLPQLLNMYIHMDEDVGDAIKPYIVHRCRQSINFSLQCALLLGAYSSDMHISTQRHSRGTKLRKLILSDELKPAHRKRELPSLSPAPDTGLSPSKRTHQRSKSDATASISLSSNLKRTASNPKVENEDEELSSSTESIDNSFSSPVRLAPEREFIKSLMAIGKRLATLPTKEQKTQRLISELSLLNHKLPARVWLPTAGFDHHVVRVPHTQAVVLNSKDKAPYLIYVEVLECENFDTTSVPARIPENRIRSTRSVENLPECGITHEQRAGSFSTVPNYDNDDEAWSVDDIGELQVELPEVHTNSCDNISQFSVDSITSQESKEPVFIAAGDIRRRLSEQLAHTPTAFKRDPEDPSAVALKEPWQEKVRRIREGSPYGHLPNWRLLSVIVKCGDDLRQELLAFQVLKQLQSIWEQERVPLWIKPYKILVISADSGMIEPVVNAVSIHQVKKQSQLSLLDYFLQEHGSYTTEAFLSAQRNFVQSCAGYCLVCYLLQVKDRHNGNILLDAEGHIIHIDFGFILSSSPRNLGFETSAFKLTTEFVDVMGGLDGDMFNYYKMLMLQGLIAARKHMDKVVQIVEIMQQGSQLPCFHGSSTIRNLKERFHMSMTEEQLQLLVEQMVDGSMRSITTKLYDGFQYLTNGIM

Row | IC50 [1] | IC50 [2] | IC50 [3] | SMILES
1 | > 50 µM | > 50 µM |  | Nc1ncnc2c1ncn2[C@@H]1C[C@@]2(CO)CC[C@@H]1C2
2 | > 50 µM | > 50 µM |  | CC(=O)Nc1cccc(-c2cc3ncnc(N)c3cc2C(N)=O)c1
3 | > 50 µM | > 50 µM |  | NC(=O)c1cc2c(N)ncnc2cc1-c1cccc(CO)c1
4 | > 50 µM |  |  | NC(=O)c1cc2c(N)ncnc2cc1-c1ccc2[nH]cnc2c1
5 |  |  | > 50 µM | NC(=O)c1cc2c(N)ncnc2cc1-c1cncc(CO)c1
6 |  |  | > 50 µM | NC(=O)c1cc2c(N)ncnc2cc1-c1ccc(CO)o1
7 | > 50 µM | > 50 µM |  | NC(=O)c1cc2c(N)ncnc2cc1-c1ccc2[nH]ccc2c1
8 | > 50 µM | > 50 µM |  | NC(=O)c1cc2c(N)ncnc2cc1-c1ccc2c(c1)CCO2
9 | > 50 µM | > 50 µM | 1.46 µM | CCCCc1cc(=O)oc2cc(OCC(=O)N[C@@H](Cc3c[nH]c4ccc(O)cc34)C(=O)O)ccc12
10 | > 50 µM | > 50 µM |  | NC(=O)c1cc2c(N)ncnc2cc1-c1ccc2cc[nH]c2c1
11 | > 50 µM | > 50 µM |  | NC(=O)c1cc2c(N)ncnc2cc1-c1ccc2c(c1)OCO2

Row | SMILES | IC50 [1] | IC50 [2] | IC50 [3]
12 | COC[C@H]1OC(=O)c2coc3c2[C@@]1(C)C1=C(C3=O)[C@@H]2CCC(=O)[C@@]2(C)C[C@H]1OC(C)=O [WORTMANNIN] | 0.28 µM | 0.44 µM | > 30 µM
